Experimental findings from US9777008B2, “PRMT5 inhibitors and uses thereof” (Epizyme, Inc., priority 2012, dated 2017) are described below.

For assay [1], the target named is PRMT5/MEP50 (Homo sapiens (Human), UniProt O14744). The assay can be described thus: PRMT5 Biochemical Assay (PRMT5/MEP50 enzyme assay on peptide substrate, 3H-SAM Flashplate). An excerpt: S-adenosylmethionine (SAM), S-adenosylhomocysteine (SAH), bicine, KCl, Tween20, dimethylsulfoxide (DMSO), bovine skin gelatin (BSG), and Tris(2-carboxyethyl)phosphine hydrochloride solution (TCEP) were purchased from Sigma-Aldrich at the highest level of purity possible. ^3H-SAM was purchase from American Radiolabeled Chemicals with a specific activity of 80 Ci/mmol. 384-well streptavidin Flashplates were purchased from PerkinElmer.
Chain of PRMT5/MEP50 (O14744 other isoform, or with tags, fused parts or gaps): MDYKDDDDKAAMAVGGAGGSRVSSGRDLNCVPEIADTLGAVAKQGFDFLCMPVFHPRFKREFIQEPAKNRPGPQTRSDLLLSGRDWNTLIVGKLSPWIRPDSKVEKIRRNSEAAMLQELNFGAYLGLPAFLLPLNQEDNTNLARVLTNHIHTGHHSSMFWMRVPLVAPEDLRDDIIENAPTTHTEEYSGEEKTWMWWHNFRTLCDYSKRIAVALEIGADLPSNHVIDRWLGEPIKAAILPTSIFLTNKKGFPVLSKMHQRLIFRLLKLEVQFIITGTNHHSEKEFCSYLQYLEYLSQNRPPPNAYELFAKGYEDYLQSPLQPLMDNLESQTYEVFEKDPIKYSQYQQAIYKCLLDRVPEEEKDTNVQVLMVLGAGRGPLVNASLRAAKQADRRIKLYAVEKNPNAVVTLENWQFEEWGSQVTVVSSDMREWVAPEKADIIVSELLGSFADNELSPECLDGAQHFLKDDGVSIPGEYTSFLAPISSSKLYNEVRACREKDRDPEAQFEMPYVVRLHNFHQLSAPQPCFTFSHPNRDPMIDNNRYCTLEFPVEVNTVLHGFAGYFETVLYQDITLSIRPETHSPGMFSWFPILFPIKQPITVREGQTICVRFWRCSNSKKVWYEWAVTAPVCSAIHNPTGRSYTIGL
Chain of PRMT5/MEP50 (Q9BQA1 other isoform, or with tags, fused parts or gaps partner): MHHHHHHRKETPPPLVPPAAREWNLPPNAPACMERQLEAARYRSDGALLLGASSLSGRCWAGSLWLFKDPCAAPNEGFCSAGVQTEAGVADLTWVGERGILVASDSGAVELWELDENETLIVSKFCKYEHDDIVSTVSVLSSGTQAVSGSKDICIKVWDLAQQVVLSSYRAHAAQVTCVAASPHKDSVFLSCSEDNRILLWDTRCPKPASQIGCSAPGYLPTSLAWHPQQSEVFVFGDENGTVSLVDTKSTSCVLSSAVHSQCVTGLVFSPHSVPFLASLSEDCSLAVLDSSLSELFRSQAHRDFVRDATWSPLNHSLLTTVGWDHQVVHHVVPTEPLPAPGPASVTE
Peptide representative of human histone H4 residues 1-15 was synthesized with a C-terminal linker-affinity tag motif and a C-terminal amide cap by 21st Century Biochemicals. The peptide was high high-performance liquid chromatography (HPLC) purified to greater than 95% purity and confirmed by liquid chromatography mass spectrometry (LC-MS). The sequence was Ac-[…][K-Biot]-amide (SEQ ID NO.:3).
Molecular Biology: Full-length human PRMT5 (NM_006109.3) transcript variant 1 clone was amplified from a fetal brain cDNA library, incorporating flanking 5′ sequence encoding a FLAG tag ([…]) (SEQ ID NO.:4) fused directly to Ala 2 of PRMT5. Full-length human MEP50 (NM_024102) clone was amplified from a human testis cDNA library incorporating a 5′ sequence encoding a 6-histidine tag (MHHHHHH) (SEQ ID NO.:5) fused directly to Arg 2 of MEP50. The amplified genes were sublconed into pENTR/D/TEV (Life Technologies) and subsequently transferred by Gateway™ attL×attR recombination to pDEST8 baculvirus expression vector (Life Technologies).
Recombinant baculovirus and Baculovirus-Infected Insect Cells (BIIC) were generated according to Bac-to-Bac kit instructions (Life Technologies) and Wasilko, 2006, respectively. Protein over-expression was accomplished by infecting exponentially growing Spodoptera frugiperda (SF9) cell culture at 1.2×10^6 cell/ml with a 5000 fold dilution of BIIC stock. Infections were carried out at 27° C. for 72 hours, harvested by centrifugation, and stored at −80° C. for purification.
Flag-PRMT5/6His-MeP50 was eluted with 300 mM Imidazole in the same buffer. The purity of recovered protein was 87%. Reference: Wasilko, D. J. and S. E. Lee: “TIPS: titerless infected-cells preservation and scale-up” Bioprocess J., 5 (2006), pp. 29-32.
General Procedure for PRMT5/MEP50 Enzyme Assays on Peptide Substrates.
The assays were all performed in a buffer consisting of 20 mM Bicine (pH=7.6), 1 mM TCEP, 0.005% BSG, and 0.002% Tween20, prepared on the day of use. Compounds in 100% DMSO (1 ul) were spotted into a polypropylene 384-well V-bottom plates (Greiner) using a Platemate Plus outfitted with a 384-channel head (Thermo Scientific). DMSO (1 ul) was added to Columns 11, 12, 23, 24, rows A-H for the maximum signal control and 1 ul of SAH, a known product and inhibitor of PRMT5/MEP50, was added to columns 11, 12, 23, 24, rows I-P for the minimum signal control. A cocktail (40 ul) containing the PRMT5/MEP50 enzyme and the peptide was added by Multidrop Combi (Thermo-Fisher). The compounds were allowed to incubate with PRMT5/MEP50 for 30 min at 25 degrees Celsius, then a cocktail (10 ul) containing ^3H-SAM was added to initiate the reaction (final volume=51 ul). The final concentrations of the components were as follows: PRMT5/MEP50 was 4 nM, ^3H-SAM was 75 nM, peptide was 40 nM, SAH in the minimum signal control wells was 100 uM, and the DMSO concentration was 1%. The assays were stopped by the addition of non-radioactive SAM (10 ul) to a final concentration of 600 uM, which dilutes the ^3H-SAM to a level where its incorporation into the peptide substrate is no longer detectable. 50 ul of the reaction in the 384-well polypropylene plate was then transferred to a 384-well Flashplate and the biotinylated peptides were allowed to bind to the streptavidin surface for at least 1 hour before being washed three times with 0.1% Tween20 in a Biotek ELx405 plate washer. […]

The subject of assay [2] is symmetric di-methyl arginine in Z-138 cells. The assay can be described thus: Z-138 Methylation Assay (In Cell Western for symmetric di-methyl arginine and DNA content). The format is cell-based. To be noted: Homo sapiens, read-out: ICW EC50. From the text:
[formula] [formula] Where top and bottom are the normally allowed to float, but may be fixed at 100 or 0 respectively in a 3-parameter fit. The Hill Coefficient normally allowed to float but may also be fixed at 1 in a 3-parameter fit. Y is the % inhibition and X is the compound concentration. Z-138 Methylation Assay
Z-138 suspension cells were purchased from ATCC (American Type Culture Collection, Manassas, Va.). RPMI/Glutamax medium, penicillin-streptomycin, heat inactivated fetal bovine serum, and D-PBS were purchased from Life Technologies, Grand Island, N.Y., USA. Odyssey blocking buffer, 800CW goat anti-rabbit IgG (H+L) antibody, and Licor Odyssey infrared scanner were purchased from Licor Biosciences, Lincoln, Nebr., USA. Symmetric di-methyl arginine antibody was purchased from EMD Millipore, Billerica, Mass., USA. 16% Paraformaldehyde was purchased from Electron Microscopy Sciences, Hatfield, Pa., USA. Z-138 suspension cells were maintained in growth medium (RPMI 1640 supplemented with 10% v/v heat inactivated fetal bovine serum and 100 units/mL penicillin-streptomycin) and cultured at 37° C. under 5% CO2.
Cell Treatment, in Cell Western (ICW) for Detection of Symmetric Di-Methyl Arginine and DNA Content.
Z-138 cells were seeded in assay medium at a concentration of 50,000 cells per mL to a 384-well cell culture plate with 50 μL per well. Compound (100 nL) from 384 well source plates was added directly to 384 well cell plate. Plates were incubated at 37° C., 5% CO2 for 96 hours. […]
First, the ratio for each well was determined by:
Each plate included fourteen control wells of DMSO only treatment (minimum inhibition) as well as fourteen control wells for maximum inhibition treated with 3 μM of a reference compound (Background wells). The average of the ratio values for each control type was calculated and used to determine the percent inhibition for each test well in the plate. […] Percent inhibition was determined and IC50 curves were generated using triplicate wells per concentration of compound. […]

Regarding `O=C(Nc1cccc(OCC(O)CN2CCc3ccccc3C2)c1)c1cccnc1` (centres unmarked) [Compound 163], in assay [1], the IC50 lay in the range of 1 to 10 µM. Also, in assay [2], the EC50 was in the range of 1 to 10 µM.

A word on the IC50: it is the point on the concentration scale where inhibition reaches its midpoint. Usually EC50 stands for the concentration that produces a half-maximal response.
